Values quoted from earlier work as cited in US12690594B2, “Apparatus and methods for dissolving carbon dioxide in water” (ECO-OXYGEN TECHNOLOGIES, LLC, priority 2023, dated 2026).

Tested on: dreissenid mussel
Details: laboratory and field studies; no concentration or exposure time printed

## O=C=O [carbon dioxide]
  mortality: successfully cause mortality
  rate of veliger byssogenesis (settlement and colonization): reduction in the rate of veliger byssogenesis
